What all share (format): in vivo, Sprague-Dawley rats
For assay [1], the system named is cerebral infarction in the striatum after MCAor. In words: Cerebral infarction assay (TTC staining).
Assay [2] deals with nerve growth factor (NGF). Briefly: ELISA assay of NGF in brain tissues. To be noted: striatal and cortical tissues, p>0.05. How it is done: (§1) To examine possible non-opioid effects of DADLE, assays of expression of neurotrophic factors (glial cell line-derived neurotrophic factor (GDNF) and nerve growth factor (NGF)) that have been previously shown to be protective against ischemia were performed. Enzyme-linked immunosorbent assay (ELISA) was conducted on ischemic animals injected either with DADLE or saline (n=6 per group). Following the same drug dosing regimen mentioned above, animals were rapidly decapitated, their brains removed and striatal and frontal cortical tissues quickly dissected. Brain homogenization and supernatant acidification were performed using methods as described in Okragly et al., Exp Neurol 1997, 145:592-596 [37] with minor modifications. Protein concentrations were measured by using the BCA Kit (Pierse, Rockford, Ill. USA). For the measurement of GDNF, mouse monoclonal anti-GDNF antibody (R & D Systems, Inc., Minnesota, USA) was used as a capture antibody and biotinylated goat anti-GDNF antibody (R & D Systems, Inc., Minnesota, USA) was used as a detection antibody. For the measurement of NGF, the NGF Emax TM ImmunoAssay system (Promega Cooperation, Madison, Wis., USA) was used. The THERMOmax 96-well microplate reader (Molecular Devices Corp., Sunnyvale, Calif. USA) was used to measure the optical densities.

For assay [3], the system named is glial cell line-derived neurotrophic factor (GDNF). In words: ELISA assay of GDNF in brain tissues. To be noted: striatal and cortical tissues, p<0.05. The protocol:
as §1
(In general: In an ELISA, binding on a coated surface is turned into a signal by an enzyme label.)

For assay [4], the system named is p53 mRNA. In words: Determination of p53 mRNA expression (northern blot). The conditions noted are these: 24 hr post-MCAor. The protocol: To examine whether DADLE altered programmed cell death or apoptosis, which has been postulated to mediate ischemia-induced cell injury, the mRNA expression of the apoptotic marker p53 were assayed. At 24 hr and 72 hr after MCAor surgery, randomly selected animals that received either DADLE alone or saline alone were euthanized by rapid decapitation. The striatum was dissected and quickly frozen using dry ice then stored in −80° C. freezer until tissue processing was conducted. Total RNA extraction, northern blot analysis and hybridization were conducted using standard methods as described in Chomczynski et al., Anal Biochem 1987, 162:156-159 and Mattson, Brain Res 2000, 886:47-53 [34,35]. Analyses of resulting bands were quantified using a Macintosh computer-based image analysis system (Image, NIH). Densitometrically determined intensities of p-53 mRNA was normalized to 18S rRNA.

For assay [5], the system named is caspase-3. Briefly: Immunohistochemistry of apoptosis markers, caspase-3. The conditions noted are these: ischemic striatum, 72 hours after MCAor. How it is done:
(§2) In order to further characterize the effects of DADLE on apoptotic cell death, 20 animals were subjected to the same procedures as above, and the treatment effects of DADLE (n=10) against saline vehicle alone (n=10) were compared. Rats were euthanized at 72 hours after MCAor surgery. The rats were perfused transcardially with 200 ml of cold phosphate-buffered saline (PBS) and 200 ml of 4% paraformaldehyde in PBS. Brains were removed and post-fixed in the same fixative overnight at 4° C. with the subsequent replacement with 30% sucrose in PBS for 72 hours. The brains were coronally sectioned at the thickness of 8 μm. Sections were washed 3 times for 5 minutes in PBS. Sections were then incubated overnight at 4° C. with caspase-3 (Abeam, 1:500) or Fas (Santa Cruz Biotechnology, 1:100) primary antibody and washed 3 times in PBS. […]
(§3) For morphological analyses, immunoreactive cells in the striatum within the ipsilateral to the stroke hemisphere were examined using a Zeiss LSM510 confocal microscope (Oberkochen, Germany). Specifically, 6 coronal sections at every 300 μm that approximately captured the ischemic striatum (AP −2.0 to +2.0 mm from the bregma) were examined from each rat and the number of positive cells was counted in each 6 high power fields and the averages were used for the statistical analyses. […]

The test system of assay [6] is Fas. In words: Immunohistochemistry of apoptosis markers, Fas. To be noted: ischemic striatum, 72 hours after MCAor. How it is done: as §2, §3
In assay [7] the test system is ischemia-induced asymmetrical motor deficits (MCAor). Briefly: Battery of behavioral tests after MCAor surgery.
Assay [8] deals with ischemia-induced postural bias (MCAor). Briefly: Postural bias (tail-hang) test. To be noted: scale 0-3; pooled mean of ischemic animals pretreated with saline, naltrexone alone or naloxone methiodide alone. How it is done:
(§4) The spontaneous rotational test was performed immediately after the animal's recovery from anesthesia following insertion of the embolus. The animal was placed in a chamber made of transparent Plexiglas (40×40×35.5 cm) and the direction of the animal's rotation was noted over two 5-minute sessions. Two full turns (tight ipsiversive rotations) per minute was considered indicative of a brain insult. For the postural bias test and forelimb akinesia test, a semiquantitative scale was used as described in Bederson et al., Stroke 1986, 17:472-476 [33].
The postural tail-hang test involved holding the animal by the tail (similar to the EBST) and noting the positions of the forelimbs. A scale is used for grading the ischemic injury-induced dysfunctions as follows: 0, rats extend straight both forelimbs, no observable deficit; 1, rats keep the left forelimb to the breast and extend straight the right forelimb; 2, rats show decreased resistance to lateral push in addition to behavior in score 1 without circling; 3, rats twist the upper half of their body in addition to behavior in score 2.
Finally, the forelimb akinesia test involved pulling each forelimb at 90 degrees away from the body median axis. The return of the forelimb towards the midline was scored as 0 for slow movement with rigidity, 1 for slow movement, and 2 for smooth rapid movement. […]

Assay [9] deals with ischemia-induced forelimb akinesia (MCAor). In words: Forelimb akinesia test. To be noted: scale 0-2; pooled mean of ischemic animals pretreated with saline, naltrexone alone or naloxone methiodide alone.
Method: The spontaneous rotational test [32] was performed immediately after the animal's recovery from anesthesia following insertion of the embolus. The animal was placed in a chamber made of transparent Plexiglas (40×40×35.5 cm) and the direction of the animal's rotation was noted over two 5-minute sessions. Two full turns (tight ipsiversive rotations) per minute was considered indicative of a brain insult [17,32].
Finally, the forelimb akinesia test involved pulling each forelimb at 90 degrees away from the body median axis. The return of the forelimb towards the midline was scored as 0 for slow movement with rigidity, 1 for slow movement, and 2 for smooth rapid movement. A score of 1 in the scale for postural bias test or forelimb akinesia test was considered as indicative of CNS dysfunction [17].
Assay [10] relates to ischemia-induced spontaneous rotational behavior (MCAor). In words: Spontaneous rotational test. The conditions noted are these: pooled mean of ischemic animals pretreated with saline, naltrexone alone or naloxone methiodide alone. How it is done: (§5) After recovery from anesthesia, animals were evaluated on a battery of tests including spontaneous rotational test, elevated body swing test (EBST), postural bias test and forelimb akinesia test.
as §4

Assay [11] has as its system ischemia-induced biased swing activity (MCAor). In words: Elevated body swing test (EBST). The conditions noted are these: pooled mean of ischemic animals pretreated with saline, naltrexone alone or naloxone methiodide alone. The protocol: as §5
The EBST is described in detail in Borlongan et al., Exp Neurol 1998, 149:310-321[17], and has been utilized to characterize the biased swing activity of ischemic animals starting at one month post-ischemia and extending up to three months post-surgery. The animal was lifted 20 times by its tail and the direction of the swing was recorded.

Structures are written as SMILES.

With `CC(C)C[C@@H](NC(=O)[C@H](Cc1ccccc1)NC(=O)CNC(=O)[C@@H](C)NC(=O)[C@@H](N)Cc1ccc(O)cc1)C(=O)O` [DADLE, [D-Ala^2,D-Leu^5]enkephalin], the “mean volume of infarcted striatal tissue” value in assay [1] (rat, in vivo) is “no detectable infarction”. In addition, the “levels of NGF compared to saline-treated ischemic animals” value in assay [2] is reported as “did not differ”. The “levels of GDNF compared to saline-treated ischemic animals” value in assay [3] was “significantly higher”. Also, the “increment in p-53 mRNA expression in ischemic striatum compared to intact striatum of control, normal animals” value in [4] (normalized to 18S rRNA, vehicle 65% increment, not significant vs control (p>0.05)) is listed as 28%. Besides, in assay [4] (only a trend, p=0.07), the “p-53 mRNA expression in ischemic striatum compared to vehicle-treated ischemic animals” value is “marked reduction”. The “caspase-3-positive cells compared to vehicle-treated ischemic animals” value in [5] is reported as “significant reductions”. Moreover, the “Fas-positive cells compared to vehicle-treated ischemic animals” value in assay [6] was “significant reductions”. Moreover, the “behavior in EBST, spontaneous rotational test, postural bias test and forelimb akinesia test” value (from here on “behavior in EBST”) in assay [7] (rat, in vivo) is on record as “near-normal behaviors”.
For `C=CC[N+]1(C)CC[C@]23c4c5ccc(O)c4O[C@H]2C(=O)CC[C@@]3(O)[C@H]1C5` (stereo partly drawn) [naloxone methiodide], in [1] (TTC staining at 24 or 72 hr after reperfusion, saline 81.2±5.3 mm^3), the “mean volume of infarcted striatal tissue” value was determined as 78.7±7.4 mm^3. Also, the “mean postural bias score” value in assay [8] turned out to be 2.25±0.31. The mean akinesia score in assay [9] was 1.17±0.15. Further, in [7] (rat, in vivo), the “behavior in EBST” value is listed as “significant abnormalities”. Besides, the “mean ipsiversive rotations per minute” value in assay [10] came to 2.52±0.56 rotations per minute. Also, in assay [11], the “mean percentage biased swing response” value was 82.8%±12.3.
As for `O=C1CC[C@@]2(O)[C@H]3Cc4ccc(O)c5c4[C@@]2(CCN3CC2CC2)[C@H]1O5` [naltrexone], the “mean postural bias score” value in [8] is on record as 2.25±0.31. Moreover, in assay [7] (ischemic rats, pretreatment i.p. before MCAor, throughout the post-MCAor test period (day 0 to 3)), the “behavior in EBST” value is “significant abnormalities”. For the same compound, in assay [10], the “mean ipsiversive rotations per minute” value was 2.52±0.56 rotations per minute. Moreover, the “mean percentage biased swing response” value in assay [11] is 82.8%±12.3.

Values taken from patent US20100317578A1, “METHOD OF PROTECTING AGAINST STROKE THROUGH THE USE OF A DELTA OPIOID PEPTIDE” (priority 2009, published 2010).
